Laboratory results published in publication PMC4142866, “The chemoenzymatic synthesis of clofarabine and related 2′-deoxyfluoroarabinosyl nucleosides: the electronic and stereochemical factors determining substrate recognition by E. coli nucleoside phosphorylases” (Beilstein Journal of Organic Chemistry, 2014).

Molecular target: T1, recombinant E. coli purine nucleoside phosphorylase (PNP) (Escherichia coli, UniProt P0ABP8)
T1 construct: gene deoD
T1 sequence (P0ABP8 2-239): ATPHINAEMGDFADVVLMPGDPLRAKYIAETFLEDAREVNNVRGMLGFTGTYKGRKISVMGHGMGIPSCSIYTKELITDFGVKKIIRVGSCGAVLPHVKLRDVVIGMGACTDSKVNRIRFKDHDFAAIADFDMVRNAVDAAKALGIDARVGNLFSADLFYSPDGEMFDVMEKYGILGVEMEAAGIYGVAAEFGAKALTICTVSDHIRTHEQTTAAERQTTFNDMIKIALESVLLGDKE
Experiment: inhibition of PNP nucleoside synthesis
Assay type: biochemical
Conditions: not a substrate; moderate inhibitor of the synthetic reaction; no value

**Q.** How did the “inhibition of PNP nucleoside synthesis” value turn out when `Nc1nc(=O)n2ccn([C@@H]3O[C@H](CO)[C@@H](O)[C@@H]3O)c2n1` [4b, arabinoside 4b] was run?
**A.** The value was “nucleosides 4b and 5b are not substrates for E. coli PNP and moderately inhibit”.

**Q.** Which “inhibition of PNP nucleoside synthesis” value does the source give for `O=c1[nH]cnc2c1cnn2[C@@H]1O[C@H](CO)[C@@H](O)[C@@H]1O` [5b, arabinoside 5b] here?
**A.** The value was “nucleosides 4b and 5b are not substrates for E. coli PNP and moderately inhibit”.
